Assay results: publication PMC7827406, “Structure–Activity Relationship (SAR) Study of Spautin-1 to Entail the Discovery of Novel NEK4 Inhibitors” (International Journal of Molecular Sciences, 2021)
Read-outs that look alike come from different tables or passages of the source.

Assays:
Assay in all cases: biochemical
Parameters in all cases: Eurofins KinaseProfiler full panel at Km ATP, residual kinase activity (%) relative to DMSO
PKBγ(h) = biological target: T1, PKBγ(h) (Homo sapiens, UniProt Q9Y243)
T1 construct: gene AKT3
Procedure, shortened: (§1)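 Two 10 µM single-concentration screens were run: a competition-binding screen, in which DNA-tagged kinase bound to immobilized ligands was quantified by qPCR, and a radiometric activity panel at Km ATP. Each is expressed as residual kinase activity (%).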

Pim-2(h) = biological target: T2, Pim-2(h) (Homo sapiens, UniProt Q9P1W9)
T2 construct: gene PIM2
T2 sequence (Q9P1W9 whole entry): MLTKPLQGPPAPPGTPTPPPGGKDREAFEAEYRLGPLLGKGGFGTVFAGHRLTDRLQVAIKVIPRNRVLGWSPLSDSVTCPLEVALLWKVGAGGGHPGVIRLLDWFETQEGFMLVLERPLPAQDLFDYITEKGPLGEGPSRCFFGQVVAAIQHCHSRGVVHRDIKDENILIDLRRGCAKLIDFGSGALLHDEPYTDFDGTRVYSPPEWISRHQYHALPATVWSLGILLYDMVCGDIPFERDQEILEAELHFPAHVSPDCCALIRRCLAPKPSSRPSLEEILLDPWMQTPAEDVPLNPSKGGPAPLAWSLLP
Procedure, shortened: as §1

PKBα(h) = biological target: T3, PKBα(h) (Homo sapiens, UniProt P31749)
T3 construct: gene AKT1
T3 sequence (P31749 whole entry): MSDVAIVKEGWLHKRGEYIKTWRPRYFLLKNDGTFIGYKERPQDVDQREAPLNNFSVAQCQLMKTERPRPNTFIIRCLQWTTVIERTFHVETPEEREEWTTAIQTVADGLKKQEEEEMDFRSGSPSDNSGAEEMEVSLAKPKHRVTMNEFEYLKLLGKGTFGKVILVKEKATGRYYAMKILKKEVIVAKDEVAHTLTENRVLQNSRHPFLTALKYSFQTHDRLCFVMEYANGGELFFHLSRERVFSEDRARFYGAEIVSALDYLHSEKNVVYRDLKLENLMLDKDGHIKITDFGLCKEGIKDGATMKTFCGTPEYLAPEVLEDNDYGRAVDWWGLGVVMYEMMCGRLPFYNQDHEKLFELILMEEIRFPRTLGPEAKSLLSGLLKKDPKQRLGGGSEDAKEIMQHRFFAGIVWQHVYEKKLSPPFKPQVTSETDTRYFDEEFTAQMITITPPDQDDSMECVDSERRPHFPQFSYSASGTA
Procedure, shortened: as §1

Itk(h) = biological target: T4, Itk(h) (Homo sapiens, UniProt Q08881)
T4 sequence (Q08881 1-620): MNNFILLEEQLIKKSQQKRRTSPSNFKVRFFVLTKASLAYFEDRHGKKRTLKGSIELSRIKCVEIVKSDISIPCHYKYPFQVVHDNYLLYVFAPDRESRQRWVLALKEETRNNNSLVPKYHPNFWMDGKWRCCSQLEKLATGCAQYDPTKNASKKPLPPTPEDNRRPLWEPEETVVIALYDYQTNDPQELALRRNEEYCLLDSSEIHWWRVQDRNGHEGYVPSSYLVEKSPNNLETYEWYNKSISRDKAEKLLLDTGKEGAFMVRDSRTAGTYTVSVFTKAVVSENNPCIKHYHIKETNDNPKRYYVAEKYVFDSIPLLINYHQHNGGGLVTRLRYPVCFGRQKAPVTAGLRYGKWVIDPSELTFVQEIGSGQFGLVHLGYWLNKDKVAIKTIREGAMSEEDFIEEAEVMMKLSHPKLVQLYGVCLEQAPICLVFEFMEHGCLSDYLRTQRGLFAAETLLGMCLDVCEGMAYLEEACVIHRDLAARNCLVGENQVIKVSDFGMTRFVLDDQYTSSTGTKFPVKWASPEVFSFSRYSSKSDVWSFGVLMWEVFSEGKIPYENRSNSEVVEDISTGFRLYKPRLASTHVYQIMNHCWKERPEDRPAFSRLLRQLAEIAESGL
Procedure, shortened: as §1

EGFR(T790M,L858R)(h) = EGFR(T790M,L858R)(h) (Homo sapiens, UniProt P00533, L858R/T790M)
Chain of EGFR(T790M,L858R)(h) (P00533 whole entry T790M/L858R): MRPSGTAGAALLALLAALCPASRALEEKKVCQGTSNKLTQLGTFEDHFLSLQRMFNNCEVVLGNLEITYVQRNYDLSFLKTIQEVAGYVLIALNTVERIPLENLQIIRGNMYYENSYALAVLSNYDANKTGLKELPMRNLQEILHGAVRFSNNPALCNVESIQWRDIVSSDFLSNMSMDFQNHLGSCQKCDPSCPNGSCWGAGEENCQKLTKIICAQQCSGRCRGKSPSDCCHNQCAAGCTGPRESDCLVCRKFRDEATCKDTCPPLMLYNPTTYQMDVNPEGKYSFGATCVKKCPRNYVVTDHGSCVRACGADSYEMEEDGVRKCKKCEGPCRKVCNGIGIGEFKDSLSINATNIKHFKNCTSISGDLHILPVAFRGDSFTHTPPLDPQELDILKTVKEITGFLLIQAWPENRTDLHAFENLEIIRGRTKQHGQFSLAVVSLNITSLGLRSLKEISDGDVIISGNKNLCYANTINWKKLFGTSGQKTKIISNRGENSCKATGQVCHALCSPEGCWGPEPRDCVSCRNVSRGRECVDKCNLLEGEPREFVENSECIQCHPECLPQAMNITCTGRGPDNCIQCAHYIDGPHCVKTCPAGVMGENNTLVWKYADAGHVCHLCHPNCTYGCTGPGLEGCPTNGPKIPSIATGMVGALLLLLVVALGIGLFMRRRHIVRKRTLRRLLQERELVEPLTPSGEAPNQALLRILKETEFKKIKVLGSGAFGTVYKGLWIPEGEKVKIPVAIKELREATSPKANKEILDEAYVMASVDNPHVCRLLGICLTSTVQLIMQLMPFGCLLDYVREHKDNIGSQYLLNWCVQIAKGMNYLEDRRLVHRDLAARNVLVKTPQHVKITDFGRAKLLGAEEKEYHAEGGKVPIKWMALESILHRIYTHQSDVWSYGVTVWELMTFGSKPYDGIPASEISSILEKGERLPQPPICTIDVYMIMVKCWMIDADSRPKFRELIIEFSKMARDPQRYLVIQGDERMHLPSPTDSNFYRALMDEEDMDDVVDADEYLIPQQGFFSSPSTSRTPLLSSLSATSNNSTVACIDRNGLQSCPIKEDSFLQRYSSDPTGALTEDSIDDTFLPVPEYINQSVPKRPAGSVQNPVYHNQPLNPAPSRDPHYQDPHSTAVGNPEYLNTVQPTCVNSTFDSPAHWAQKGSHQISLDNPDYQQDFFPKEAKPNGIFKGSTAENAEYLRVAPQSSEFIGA
Procedure, shortened: as §1

PKCμ(h) = biological target: T5, PKCμ(h) (Homo sapiens, UniProt Q15139)
T5 construct: gene PRKD1
T5 sequence (Q15139 1-912): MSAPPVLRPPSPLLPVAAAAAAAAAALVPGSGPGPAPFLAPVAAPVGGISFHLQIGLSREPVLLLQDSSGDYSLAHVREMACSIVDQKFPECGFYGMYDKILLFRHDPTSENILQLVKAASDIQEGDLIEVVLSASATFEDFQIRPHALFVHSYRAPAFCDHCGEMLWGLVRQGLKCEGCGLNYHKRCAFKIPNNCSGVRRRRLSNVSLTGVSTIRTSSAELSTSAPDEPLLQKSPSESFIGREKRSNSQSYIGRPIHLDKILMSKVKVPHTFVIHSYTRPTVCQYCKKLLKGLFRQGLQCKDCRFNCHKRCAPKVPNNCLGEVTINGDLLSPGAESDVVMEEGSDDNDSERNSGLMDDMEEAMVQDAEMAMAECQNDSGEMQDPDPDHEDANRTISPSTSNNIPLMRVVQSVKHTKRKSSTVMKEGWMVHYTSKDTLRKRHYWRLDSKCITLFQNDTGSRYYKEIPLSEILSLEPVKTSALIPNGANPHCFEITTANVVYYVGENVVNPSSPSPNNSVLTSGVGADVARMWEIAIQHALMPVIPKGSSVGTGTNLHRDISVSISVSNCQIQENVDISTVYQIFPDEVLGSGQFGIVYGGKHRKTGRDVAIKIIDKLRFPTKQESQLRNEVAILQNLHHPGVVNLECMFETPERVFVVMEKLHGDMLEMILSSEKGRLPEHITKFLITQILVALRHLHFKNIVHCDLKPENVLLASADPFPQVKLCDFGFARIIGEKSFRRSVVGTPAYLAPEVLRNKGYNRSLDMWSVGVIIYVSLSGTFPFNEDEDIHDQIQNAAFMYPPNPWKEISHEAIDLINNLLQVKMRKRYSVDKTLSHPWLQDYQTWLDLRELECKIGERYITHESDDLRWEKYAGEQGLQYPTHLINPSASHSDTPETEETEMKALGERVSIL
Procedure, shortened: as §1

Arg(h) = biological target: T6, Arg(h) (Homo sapiens, UniProt P42684)
T6 construct: gene ABL2
T6 sequence (P42684 whole entry): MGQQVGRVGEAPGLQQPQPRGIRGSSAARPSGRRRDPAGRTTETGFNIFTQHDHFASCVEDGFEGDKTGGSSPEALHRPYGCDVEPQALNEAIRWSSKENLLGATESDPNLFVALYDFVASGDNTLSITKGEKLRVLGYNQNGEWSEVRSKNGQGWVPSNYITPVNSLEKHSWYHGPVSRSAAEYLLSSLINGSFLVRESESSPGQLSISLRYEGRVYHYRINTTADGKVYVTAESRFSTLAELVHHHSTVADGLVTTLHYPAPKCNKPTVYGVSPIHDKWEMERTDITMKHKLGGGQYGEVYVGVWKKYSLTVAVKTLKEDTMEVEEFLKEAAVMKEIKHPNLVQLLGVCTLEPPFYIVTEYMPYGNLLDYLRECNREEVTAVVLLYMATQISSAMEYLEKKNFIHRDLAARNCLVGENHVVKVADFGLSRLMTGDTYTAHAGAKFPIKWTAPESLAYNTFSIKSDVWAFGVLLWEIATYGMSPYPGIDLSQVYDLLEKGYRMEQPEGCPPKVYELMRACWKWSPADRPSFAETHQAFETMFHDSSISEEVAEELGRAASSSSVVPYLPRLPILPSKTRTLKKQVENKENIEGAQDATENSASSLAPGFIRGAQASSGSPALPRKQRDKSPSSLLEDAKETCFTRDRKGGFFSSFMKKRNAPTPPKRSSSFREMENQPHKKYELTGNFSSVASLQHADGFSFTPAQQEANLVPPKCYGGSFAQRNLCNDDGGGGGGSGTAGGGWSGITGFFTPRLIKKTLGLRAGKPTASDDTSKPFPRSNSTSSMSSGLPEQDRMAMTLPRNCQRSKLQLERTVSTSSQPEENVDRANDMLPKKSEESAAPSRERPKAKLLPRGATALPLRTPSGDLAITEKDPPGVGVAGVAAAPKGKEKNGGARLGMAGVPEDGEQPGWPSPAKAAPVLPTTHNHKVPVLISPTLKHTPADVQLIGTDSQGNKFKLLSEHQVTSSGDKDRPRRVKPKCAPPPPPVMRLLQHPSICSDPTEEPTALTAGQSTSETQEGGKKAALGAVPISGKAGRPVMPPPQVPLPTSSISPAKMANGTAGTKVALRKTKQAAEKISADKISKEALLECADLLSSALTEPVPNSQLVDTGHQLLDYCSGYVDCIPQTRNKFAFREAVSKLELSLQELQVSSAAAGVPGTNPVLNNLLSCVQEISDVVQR
Procedure, shortened: as §1

MRCKβ(h) = biological target: T7, MRCKβ(h) (Homo sapiens, UniProt Q9Y5S2)
T7 construct: gene CDC42BPB
T7 sequence (Q9Y5S2 whole entry): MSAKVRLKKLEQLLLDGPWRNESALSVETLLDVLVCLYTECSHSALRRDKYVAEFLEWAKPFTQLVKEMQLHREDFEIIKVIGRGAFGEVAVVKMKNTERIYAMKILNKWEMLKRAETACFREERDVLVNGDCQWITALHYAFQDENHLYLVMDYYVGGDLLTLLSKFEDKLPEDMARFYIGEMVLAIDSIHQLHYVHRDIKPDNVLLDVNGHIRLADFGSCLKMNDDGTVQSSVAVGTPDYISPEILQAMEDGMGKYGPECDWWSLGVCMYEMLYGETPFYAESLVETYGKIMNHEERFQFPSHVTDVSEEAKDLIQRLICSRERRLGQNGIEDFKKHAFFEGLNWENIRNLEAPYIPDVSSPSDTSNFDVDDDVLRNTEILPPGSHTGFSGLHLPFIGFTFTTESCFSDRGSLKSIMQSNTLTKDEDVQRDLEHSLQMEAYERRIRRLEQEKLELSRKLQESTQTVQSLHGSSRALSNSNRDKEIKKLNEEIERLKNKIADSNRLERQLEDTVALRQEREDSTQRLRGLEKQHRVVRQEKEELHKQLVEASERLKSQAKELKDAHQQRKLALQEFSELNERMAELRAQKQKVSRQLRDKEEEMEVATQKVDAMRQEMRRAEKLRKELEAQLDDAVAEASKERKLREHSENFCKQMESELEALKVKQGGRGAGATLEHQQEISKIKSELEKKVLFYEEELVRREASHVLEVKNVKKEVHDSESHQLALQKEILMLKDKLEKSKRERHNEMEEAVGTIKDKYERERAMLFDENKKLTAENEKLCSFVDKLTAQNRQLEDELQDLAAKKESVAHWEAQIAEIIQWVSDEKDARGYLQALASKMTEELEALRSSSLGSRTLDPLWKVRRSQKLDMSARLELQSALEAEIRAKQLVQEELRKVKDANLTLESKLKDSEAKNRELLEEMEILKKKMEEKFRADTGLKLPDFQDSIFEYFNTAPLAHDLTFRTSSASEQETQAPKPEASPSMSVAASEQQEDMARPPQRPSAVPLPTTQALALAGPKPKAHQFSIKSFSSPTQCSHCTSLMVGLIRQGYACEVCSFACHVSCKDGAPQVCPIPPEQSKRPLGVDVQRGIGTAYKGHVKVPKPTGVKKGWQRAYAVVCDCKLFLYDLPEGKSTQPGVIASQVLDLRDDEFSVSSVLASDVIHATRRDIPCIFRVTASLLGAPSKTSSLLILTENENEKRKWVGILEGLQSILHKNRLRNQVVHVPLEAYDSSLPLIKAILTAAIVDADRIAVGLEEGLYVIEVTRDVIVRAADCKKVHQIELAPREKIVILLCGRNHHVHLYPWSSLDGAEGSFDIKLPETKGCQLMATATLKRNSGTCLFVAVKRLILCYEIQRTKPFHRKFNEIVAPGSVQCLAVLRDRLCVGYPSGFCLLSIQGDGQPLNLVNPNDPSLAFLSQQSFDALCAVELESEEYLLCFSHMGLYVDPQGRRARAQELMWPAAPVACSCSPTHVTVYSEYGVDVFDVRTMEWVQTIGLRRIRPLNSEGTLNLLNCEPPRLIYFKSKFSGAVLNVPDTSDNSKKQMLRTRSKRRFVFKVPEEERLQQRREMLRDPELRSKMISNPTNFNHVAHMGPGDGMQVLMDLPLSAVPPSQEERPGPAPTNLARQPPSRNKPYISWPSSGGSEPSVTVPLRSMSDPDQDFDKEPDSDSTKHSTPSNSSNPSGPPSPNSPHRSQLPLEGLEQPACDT
Procedure, shortened: as §1

mTOR(h) = mTOR(h) (Homo sapiens, UniProt P42345)
Procedure, shortened: as §1

HPK1(h) = biological target: T8, HPK1(h) (Homo sapiens, UniProt Q92918)
T8 construct: gene MAP4K1
Procedure, shortened: as §1

[1] = read-out: Residual activity (%) 5ay
[2] = read-out: Residual activity (%) Spautin-1 5aa
[3] = read-out: Residual activity (%) 5at
[4] = read-out: Residual activity (%) 5as

With `COc1ccc2ncnc(Nc3cccc(F)c3)c2c1` [5ay, N-(3-Fluorophenyl)-6-Methoxy-4-Quinazolinamine] as the compound, how does the remaining activity at 10 µM (PKBγ(h); [1]) read?
The remaining activity at 10 µM was 89%.

What about the remaining activity at 10 µM (Pim-2(h); [1]) of the same compound?
The remaining activity at 10 µM was 76%.

What about the remaining activity at 10 µM (PKBα(h); [1]) of the same compound?
Its remaining activity at 10 µM is 88%.

And the remaining activity at 10 µM (Itk(h); [1])?
Its remaining activity at 10 µM is 88%.

And the remaining activity at 10 µM (EGFR(T790M,L858R)(h); [1])?
Its remaining activity at 10 µM is 69%.

What about the remaining activity at 10 µM (PKCμ(h); [1]) of the same compound?
The remaining activity at 10 µM was 93%.

What about the remaining activity at 10 µM (Arg(h); [1]) of the same compound?
The remaining activity at 10 µM was 73%.

And the remaining activity at 10 µM (MRCKβ(h); [1])?
The remaining activity at 10 µM was 79%.

What about the remaining activity at 10 µM (mTOR(h); [1]) of the same compound?
The remaining activity at 10 µM was 77%.

What about the remaining activity at 10 µM (HPK1(h); [1]) of the same compound?
The remaining activity at 10 µM was 92%.

Which remaining activity at 10 µM (PKBγ(h); [2]) does the source give for `Fc1ccc(CNc2ncnc3ccc(F)cc23)cc1` [5aa, 6-Fluoro-N-(4-fluorobenzyl)-4-Quinazolinamine] here?
The remaining activity at 10 µM was 101%.

And the remaining activity at 10 µM (Pim-2(h); [2])?
The remaining activity at 10 µM was 80%.

And the remaining activity at 10 µM (PKBα(h); [2])?
The remaining activity at 10 µM was 86%.

And the remaining activity at 10 µM (Itk(h); [2])?
Its remaining activity at 10 µM is 117%.

What about the remaining activity at 10 µM (EGFR(T790M,L858R)(h); [2]) of the same compound?
The remaining activity at 10 µM was 96%.

What about the remaining activity at 10 µM (PKCμ(h); [2]) of the same compound?
Its remaining activity at 10 µM is 97%.

And the remaining activity at 10 µM (Arg(h); [2])?
The remaining activity at 10 µM was 79%.

And the remaining activity at 10 µM (MRCKβ(h); [2])?
The remaining activity at 10 µM was 80%.

And the remaining activity at 10 µM (mTOR(h); [2])?
The remaining activity at 10 µM was 79%.

What about the remaining activity at 10 µM (HPK1(h); [2]) of the same compound?
The remaining activity at 10 µM was 92%.

For `Fc1ccc2ncnc(NCCc3ccc(Cl)cc3)c2c1` [5at, N-[2-(4-Chlorophenyl)Ethyl]-6-Fluoro-4-Quinazolinamine], which remaining activity at 10 µM (PKBγ(h); [3]) is on record?
Its remaining activity at 10 µM is 105%.

And the remaining activity at 10 µM (Pim-2(h); [3])?
Its remaining activity at 10 µM is 70%.

And the remaining activity at 10 µM (PKBα(h); [3])?
The remaining activity at 10 µM was 89%.

What about the remaining activity at 10 µM (Itk(h); [3]) of the same compound?
The remaining activity at 10 µM was 103%.

And the remaining activity at 10 µM (EGFR(T790M,L858R)(h); [3])?
The remaining activity at 10 µM was 85%.

And the remaining activity at 10 µM (PKCμ(h); [3])?
The remaining activity at 10 µM was 80%.

And the remaining activity at 10 µM (Arg(h); [3])?
The remaining activity at 10 µM was 81%.

And the remaining activity at 10 µM (MRCKβ(h); [3])?
Its remaining activity at 10 µM is 103%.

And the remaining activity at 10 µM (mTOR(h); [3])?
Its remaining activity at 10 µM is 80%.

And the remaining activity at 10 µM (HPK1(h); [3])?
The remaining activity at 10 µM was 96%.

For `Fc1ccc(CCNc2ncnc3ccc(F)cc23)cc1` [5as, 6-Fluoro-N-[2-(4-Fluorophenyl)Ethyl]-4-Quinazolinamine], which remaining activity at 10 µM (PKBγ(h); [4]) is on record?
The remaining activity at 10 µM was 102%.

And the remaining activity at 10 µM (Pim-2(h); [4])?
The remaining activity at 10 µM was 73%.

What about the remaining activity at 10 µM (PKBα(h); [4]) of the same compound?
Its remaining activity at 10 µM is 98%.

What about the remaining activity at 10 µM (Itk(h); [4]) of the same compound?
Its remaining activity at 10 µM is 97%.

And the remaining activity at 10 µM (EGFR(T790M,L858R)(h); [4])?
The remaining activity at 10 µM was 93%.

What about the remaining activity at 10 µM (PKCμ(h); [4]) of the same compound?
Its remaining activity at 10 µM is 85%.

And the remaining activity at 10 µM (Arg(h); [4])?
Its remaining activity at 10 µM is 82%.

What about the remaining activity at 10 µM (MRCKβ(h); [4]) of the same compound?
Its remaining activity at 10 µM is 84%.

And the remaining activity at 10 µM (mTOR(h); [4])?
The remaining activity at 10 µM was 76%.

And the remaining activity at 10 µM (HPK1(h); [4])?
The remaining activity at 10 µM was 98%.
